Laboratory results: patent publication US12622898B2, “Methods and compositions for improving bone marrow hematopoietic functions” (SUN YAT-SEN UNIVERSITY, priority 2019, dated 2026)
Entries after “also recorded” stand apart in the source; their conditions may differ.

Tests used:
[1] = system: HSPCs (LT-HSC, ST-HSC, MPP, CD150HSC); test: ABC294640 treatment after 5 FU chemotherapeutic stress: HSPC numbers and ROS; assay type: in vivo, mouse; conditions: vs vehicle
Text: (§1) B6N.129S6-Sphk1tm1Rlp/J (Sphk1Δ/Δ) and B6N.129S6-Sphk2tm1Rlp/J (Sphk2Δ/Δ) mice were obtained from the Jackson Laboratory. To achieve tissue-specific deletion of Sphk2, the Sphk2^flox/flox mice were crossed with Vav-Cre transgenic mice. Sphk2^flox/flox mice was constructed by Cyagen Biosciences Inc. Briefly, linearized targeting vector was electroporated into embryonic stem (ES) cells and positive clones were identified by Southern blotting and injected into C57BL/6 blastocysts followed by chimera production to obtain germline transmission. The Frt-flanked Neo cassette was subsequently removed by mating with Flpe mice. 2-month-old mice or more than 20-month old for aging we used as indicated. 5 FU (Sigma-Aldrich) was injected once or once a week for survival curve as indicated in the tail vein at 150 μg/g body weight. Sphk2 inhibitor ABC294640 (Target Molecule Corp T6750) and PDK inhibitor Sodium dichloroacetate (DCA) (Selleck Chemicals S8615) were intraperitoneal injected at 25 mg/kg. […] Animals were randomly included in the experiments according to genotyping results as a mix of male and female. All animal experiments were performed according to protocols approved by the institutional animal care and use committee.
(§2) For phenotype analysis and hematopoietic purification, hematopoietic cells were harvested from bone marrow (femur and tibia). For cell surface phenotyping, a lineage cocktail (Lin, phycoerythrin (PE)-Cy5) was used, including anti-CD3 (145-2C11), anti-CD4 (RM4-5), anti-CD8 (53-6.7), anti-Mac-1 (M1/70), anti-Gr1 (RB6-8C5), anti-B220 (RA3-6B2), anti-IgM (11/41) and anti-TER119 (TER-119) (100 ng antibody cocktail per million bone marrow cells, Biolegend). Monoclonal antibodies to SCA1 (D7, Biolegend), c-KIT (2B8, Biolegend), FLK2 (A2F10, Biolegend), CD34 (RAM34, eBioscience), CD48 (HM48-1, Biolegend), CD41 (MWReg30, eBioscience), CD150 (TC15-12F12.2, BioLegend), CD16/32 (93, Biolegend), IL-7R (A7R34, Biolegend) (all used as 50 ng per million bone marrow cells) were also used where indicated.
(§3) The cells were further incubated with 0.1 ug/uL DAPI (1306, Thermo Scientific) for 30 min at room temperature. For apoptosis and ROS analysis, the cells were stained by AnnexinV or DCFDA (D6883, Sigma-Aldrich).
(§4) Cell sorting and analysis were performed using an Attune NxT analyzer (Thermo Fisher Scientific) or InFlux Cell Sorter (BD Biosciences). Data analysis was performed using FlowJo software.

[2] = Survival of C57BL/6J mice after serial 5 FU challenges with ABC294640 treatment; assay type: in vivo, mouse; conditions: serial 5 FU every 7 days, ABC294640 every other day; vs control
Text: B6N.129S6-Sphk1tm1Rlp/J (Sphk1Δ/Δ) and B6N.129S6-Sphk2tm1Rlp/J (Sphk2Δ/Δ) mice were obtained from the Jackson Laboratory. To achieve tissue-specific deletion of Sphk2, the Sphk2^flox/flox mice were crossed with Vav-Cre transgenic mice. Sphk2^flox/flox mice was constructed by Cyagen Biosciences Inc. Briefly, linearized targeting vector was electroporated into embryonic stem (ES) cells and positive clones were identified by Southern blotting and injected into C57BL/6 blastocysts followed by chimera production to obtain germline transmission. The Frt-flanked Neo cassette was subsequently removed by mating with Flpe mice. 2-month-old mice or more than 20-month old for aging we used as indicated. 5 FU (Sigma-Aldrich) was injected once or once a week for survival curve as indicated in the tail vein at 150 μg/g body weight. Sphk2 inhibitor ABC294640 (Target Molecule Corp T6750) and PDK inhibitor Sodium dichloroacetate (DCA) (Selleck Chemicals S8615) were intraperitoneal injected at 25 mg/kg. […]
Data are expressed as means±s.d. For all experiments except determination of survival, data were analyzed by Student's t test, and differences were considered statistically significant if P<0.05. The survival of the two groups were analyzed using a log-rank test, and differences were considered statistically significant if P<0.05. […]

Pdk3 expression in HSPCs = test: Pdk3 mRNA levels and immunoblotting in HSCs treated with inhibitors; assay type: cell-based, mouse
Method: (§5) The same number of cells from each population to be analyzed were sorted into PBS with 2% FBS. The cells then were washed with PBS and Lysised by RIPA. Equal amounts of protein extracts were fractionated by 12.5% SDS-PAGE and transferred to a PVDF membrane (IPVH00010, Merck Millipore). After blocked with 5% non-fat milk in Tris-buffered saline with Tween-20 (TBST, pH 7.6) for 1 h at room temperature, the membranes were incubated with primary antibodies anti-phospho-PDHE1-A type I (Ser293) (rabbit, 1:1000, ABS204, Merck Millipore), anti-Sphk2 (rabbit, 1:1000, 17096, Proteintech), anti-PDK3 (rabbit, 1:1000, 4970s, Proteintech), or anti-βactin (rabbit, 1:1000, 2118, Cell Signaling Technology), or with primary antibodies anti-PDK3 (rabbit, 1:1000, 12215, Proteintech), anti-β-actin (rabbit, 1:1000, 4970s, Cell Signaling Technology), overnight at 4° C. and then incubated with secondary antibodies (rabbit, 1:10,000, W401B, Promega) for 1 h at room temperature, which was detected by exposure to x-ray film, or by digital imaging with a charge-coupled device camera system (Odyssey Fc). The images shown are representative of images from at least three experiments.

[3] = system: donor derived HSPCs, white blood cells and platelets; test: ABC294640 treatment of recipients after bone marrow transplantation: hematopoietic reconstitution; assay type: in vivo, mouse; conditions: vs vehicle
Text: as §1
(§6) 2.0×10^5 CD45.2 bone marrow cells and 2.0×10^5 CD45.1 rescue bone marrow cells were transplanted into lethally irradiated CD45.1 recipients. Adult recipient mice (CD45.1) were irradiated with an Orthovoltage X-ray source delivering approximately in two equal doses of 4.5 Gy at least 3 hours apart. For secondary or tertiary transplantation, bone marrow cells from each recipient were injected into one or two irradiated new recipient mouse (1×10^6 per recipient, depending on the number of recipients) during each round of transplantation.
1×10^6 bone marrow cells were transplanted into lethally irradiated recipients, and the recipients were subjected to ABC294640 treatment or vehicle control (FIG. 67).

aged HSPCs = test: ABC294640 treatment of aged mice to attenuate HSC aging; assay type: in vivo, mouse
Text: as §1, §2
For lineage analysis of peripheral blood, monoclonal antibodies to CD45.1 (A20, eBioscience), CD45.2 (104, Biolegend), CD3, B220, Mac-1 and Gr1 were used.
(§7) For cell cycle, DNA damage, the cells were fixed, permeabilized and stained by anti-Ki67 (16A8, Biolegend).
as §3
(§8) Bone marrow cells were diluted to the indicated concentration in PBS and were seeded into methylcellulose medium M3434 (StemCell Technologies) for CFU-GM, CFU-GEMM, and BFU-E colony formation assays according to the manufacturer's

[4] = system: white blood cells and platelets; test: Recovery of blood cells after 5-fluorouracil or radiation-induced injury; assay type: in vivo, mouse
[5] = system: functional HSCs (engrafted donor cells in PB); test: Competitive repopulation (serial transplantation) of bone marrow cells from mice after 5 FU and ABC294640 treatment; assay type: in vivo, mouse; conditions: for increase of reconstitution (engrafted donor cells): at 16 weeks, vs vehicle treated bone marrow cells
Method: as §6, with “For lineage analysis of peripheral blood, monoclonal antibodies to CD45.1 (A20, eBioscience), CD45.2 (104, Biolegend), CD3, B220, Mac-1 and Gr1 were used. 2.0×10^5 CD45.2” for “2.0×10^5 CD45.2”, “of transplantation. Every 4 weeks after transplantation, peripheral blood was collected from the submandibular vein. Hematopoietic repopulation was measured from donor-derived blood cells (CD45.2) or human-derived blood cells (human CD45).” for “of transplantation.”

[6] = system: HSPCs (LT-HSC, ST-HSC, MPP and CD150HSC) in the bone marrow; test: ABC294640 treatment of C57BL/6J mice during homeostasis: HSPC numbers and cell cycle; assay type: in vivo, mouse; conditions: for HSC pool / HSC quiescence (cell cycle analysis of CD150 HSCs): vs vehicle
Text: as §1, §2, §7, §4

[7] = system: human cord blood HSCs (CB-HSCs, CD34+CD38-CD45RA-CD49f+); test: Ex vivo culture of human cord blood cells with ABC294640; assay type: cell-based; conditions: 2-week culture, ABC294640 1 μM; vs vehicle
Method: For phenotype analysis of human cord blood HSCs (CB-HSCs, CD34^+CD38-CD45RA-CD49f^+), cell surface phenotyping, anti-hCD34 (581), anti-hCD38 (HIT2), anti-hCD45RA (HI100) and anti-hCD49f (GOH3) (100 ng antibody cocktail per million cord blood cells, Biolegend) were used. Human cord blood cells (2×10^5) were cultured in 96-round-well plate with Stem Span media (9650, Stem Cell Technologies) supplemented with SCF (10 ng per ml), TPO (20 ng per ml) for two weeks. The culture media was supplemented with vehicle or ABC294640 (1 μM, Target Molecule Corp […]). After culture for two weeks, the culture product was transplanted into irradiated (2Gy) 6-12 weeks old NSG mice via the tail. No mice were excluded unless they died during the 16-week-observations. All animal experiments were performed according to protocols approved by the institutional animal care and use committee.

[8] = system: human HSCs (reconstitution in NSG mice); test: Transplantation of ABC294640 treated human cord blood HSCs into NSG mice; assay type: in vivo, mouse
Method: Or, in example 14, for lineage analysis of peripheral blood, monoclonal antibodies to anti-hCD45 (HI-30, eBioscience), anti-mCD45 (30-F11, Biolegend), anti-hCD33 (human myeloid cells) (WM53, eBioscience), anti-hCD19 (human B cells) (HIB19, eBioscience), anti-hCD3 (human T cells) (UCHT1, eBioscience) were used. Every 4 weeks after transplantation, peripheral blood was collected from the submandibular vein. Hematopoietic repopulation was measured from donor-derived blood cells (CD45.2) or human-derived blood cells (human CD45). Human cord blood cells (2×10^5) were cultured in 96-round-well plate with Stem Span media (9650, Stem Cell Technologies) supplemented with SCF (10 ng per ml), TPO (20 ng per ml) for two weeks. The culture media was supplemented with vehicle or ABC294640 (1 μM, Target Molecule Corp […]). After culture for two weeks, the culture product was transplanted into irradiated (2Gy) 6-12 weeks old NSG mice via the tail. No mice were excluded unless they died during the 16-week-observations. All animal experiments were performed according to protocols approved by the institutional animal care and use committee.

Pdk3 = test: Knock-down of Pdk3 in HSCs by siRNA; assay type: cell-based, mouse
Method: as §8
as §5, with “experiments. […]” for “experiments.”

[9] = one month after transplantation
[10] = 18-month old mice, treatment for 10 weeks, vs vehicle
[11] = after stimulation of the chemotherapeutic drug 5-fluorouracil
[12] = after the stimulation of radiation
[13] = donor-derived lineage cells at 16 weeks after transplantation
[14] = ABC294640 25 mg/kg intraperitoneal vs vehicle, bone marrow
[15] = 16 weeks after transplantation in NSG mice

Compound: O=C(NCc1ccncc1)C12CC3CC(C1)CC(c1ccc(Cl)cc1)(C3)C2 [ABC294640, 3-(4-chloro-phenyl)-adamantane-1-carboxylic acid (pyridin-4-ylmethyl)-amide]
- ROS level in CD150 HSCs ([1]; day 14 after 5 FU treatment): markedly reduced
- increase of CD150 HSC number ([1]; day 14 post 5 FU): 2.2 fold
- increase of LT-HSC number ([1]; day 14 post 5 FU): 2.2 fold
- increase of ST-HSC number ([1]; day 14 post 5 FU): 1.6 fold
- survival [2]: significantly prolonged; also recorded: notably increased survival
- Pdk3 expression in HSPCs (Pdk3 expression in HSPCs): could upregulate Pdk3 expression
- increase of platelets in PB ([3]; 28 days after transplantation): 2.6 fold
- increase of white blood cells in PB ([3]; 28 days after transplantation): 1.9 fold
- increase of donor derived CD150 HSC [3, 9]: 2.2 fold
- increase of donor derived LT-HSC [3, 9]: 2.2 fold
- increase of donor derived ST-HSC [3, 9]: 1.6 fold
- CD150 HSC quiescence (aged HSPCs; [10]): preserved
- HSPC pool (aged HSPCs; [10]): significantly expanded
- increase of CD41- HSC population (aged HSPCs; [10]): 2.2 fold
- increase of CD150low HSC population (aged HSPCs; [10]): 3.6 fold
- reduction of DNA damage in CD150 HSPCs (aged HSPCs; [10]): 43.7%
- reduction of ROS level in CD150 HSPCs (aged HSPCs; [10]): 63%
- lymphopoiesis in peripheral blood (aged HSPCs; aged mice, vs vehicle): markedly increased lymphopoiesis
- myeloid skewing in peripheral blood (aged HSPCs; aged mice, vs vehicle): suppressed myeloid skewing
- colony-forming progenitor frequency in bone marrow cells (aged HSPCs; aged mice, vs vehicle treated controls): significantly higher
- recovery of platelets [4, 11]: significantly accelerated
- recovery of white blood cells [4, 11]: significantly accelerated
- recovery of platelets [4, 12]: significantly accelerated
- recovery of white blood cells [4, 12]: significantly accelerated
- lymphopoiesis in recipients [5, 13]: markedly promoted lymphopoiesis
- myeloid skewing in recipients [5, 13]: suppressed myeloid skewing
- increase of reconstitution (engrafted donor cells) ([5]; primary transplantation): 1.7 fold
- increase of reconstitution (engrafted donor cells) ([5]; secondary transplantation): 1.5 fold
- increase of reconstitution (engrafted donor cells) ([5]; tertiary transplantation): 1.9 fold
- increase of CD150 HSC number [6, 14]: 1.7 fold
- increase of LT-HSC number [6, 14]: 2.1 fold
- HSC pool [6]: expanded HSPC pool
- HSC quiescence (cell cycle analysis of CD150 HSCs) [6]: increased quiescence
- HSC pool ([6]; listed as ABC294460): expands HSC pool
- HSC quiescence (cell cycle analysis of CD150 HSCs) ([6]; listed as ABC294460): promotes HSC quiescence
- increase of human HSC numbers [7]: 1.4 fold
- lymphopoiesis (both B and T cells in recipients) [8, 15]: improved lymphopoiesis
- multilineage potential [8, 15]: with multilineage potential
- myeloid skewing [8, 15]: reduction in myeloid skewing
- increase of reconstitution (human-derived blood cells) ([8]; 16 weeks post transplantation in NSG mice, vs vehicle cultured cells): 1.76 fold

Compound: siRNA: siRNAs (GGACCTGCATCATGAACAATG, SEQ ID NO. 1) against mouse Pdk3 cloned into lentivirus pLKO.1-puro vector
- HSPC activity (myeloerythroid-colony-forming progenitors) (Pdk3; Sphk2 deficient HSCs): compromised
- PDH-E1α phosphorylation (Pdk3; control and Sphk2 deficient HSCs, immunoblotting): reduced
